In the NIST ThermoML archive (doi:10.1016/j.fluid.2016.08.014):
± gives the expanded uncertainty stated by the source.

Experiments:
[1] = Liquid, Vibrating tube method
[2] = refractive index (Na D-line) (dimensionless); conditions: 298.15 K; 101.33 kPa; Liquid; Standard Abbe refractometry

CN(C)C=O [dimethylformamide]
[1]
Conditions	mass density [kg/m3]
293.15 K, 100 kPa	949 ± 1
293.15 K, 2500 kPa	950 ± 1
293.15 K, 5100 kPa	952 ± 1
293.15 K, 10100 kPa	955 ± 1
293.15 K, 15100 kPa	958 ± 1
293.15 K, 20100 kPa	960 ± 1
293.15 K, 25000 kPa	963 ± 1
293.15 K, 30300 kPa	966 ± 1
298.15 K, 101.33 kPa	943.978 ± 4
303.15 K, 100 kPa	939 ± 1
303.15 K, 2500 kPa	941 ± 1
303.15 K, 5100 kPa	943 ± 1
303.15 K, 10000 kPa	940 ± 10
303.15 K, 15100 kPa	949 ± 1
303.15 K, 20100 kPa	951 ± 1
303.15 K, 25000 kPa	954 ± 1
303.15 K, 30100 kPa	957 ± 1
313.15 K, 100 kPa	930 ± 1
313.15 K, 2600 kPa	931 ± 1
313.15 K, 5100 kPa	933 ± 1
313.15 K, 10000 kPa	936 ± 1
313.15 K, 15100 kPa	939 ± 1
313.15 K, 20100 kPa	942 ± 1
313.15 K, 25000 kPa	945 ± 1
313.15 K, 30100 kPa	948 ± 1
323.15 K, 100 kPa	920 ± 1
323.15 K, 2500 kPa	922 ± 1
323.15 K, 5100 kPa	924 ± 1
323.15 K, 10000 kPa	927 ± 1
323.15 K, 15100 kPa	930 ± 1
323.15 K, 20100 kPa	934 ± 1
323.15 K, 25100 kPa	937 ± 1
323.15 K, 30400 kPa	940 ± 1
333.15 K, 200 kPa	910 ± 1
333.15 K, 2600 kPa	912 ± 1
333.15 K, 5000 kPa	914 ± 1
333.15 K, 10200 kPa	918 ± 1
333.15 K, 15000 kPa	921 ± 1
333.15 K, 20300 kPa	925 ± 1
333.15 K, 25100 kPa	928 ± 1
333.15 K, 30200 kPa	931 ± 1
343.15 K, 200 kPa	900 ± 1
343.15 K, 2500 kPa	903 ± 1
343.15 K, 5200 kPa	905 ± 1
343.15 K, 10000 kPa	908 ± 1
343.15 K, 15000 kPa	912 ± 1
343.15 K, 20100 kPa	916 ± 1
343.15 K, 25100 kPa	919 ± 1
343.15 K, 30400 kPa	922 ± 1
353.15 K, 200 kPa	890 ± 1
353.15 K, 2500 kPa	893 ± 1
353.15 K, 5100 kPa	895 ± 1
353.15 K, 10100 kPa	899 ± 1
353.15 K, 15000 kPa	903 ± 1
353.15 K, 20100 kPa	907 ± 1
353.15 K, 25100 kPa	910 ± 1
353.15 K, 30200 kPa	914 ± 1
363.15 K, 200 kPa	881 ± 1
363.15 K, 2600 kPa	883 ± 1
363.15 K, 5000 kPa	885 ± 1
363.15 K, 10100 kPa	890 ± 1
363.15 K, 15100 kPa	894 ± 1
363.15 K, 20100 kPa	897 ± 1
363.15 K, 25100 kPa	901 ± 1
363.15 K, 30100 kPa	905 ± 1
373.15 K, 100 kPa	871 ± 1
373.15 K, 2600 kPa	873 ± 1
373.15 K, 5000 kPa	876 ± 1
373.15 K, 10100 kPa	880 ± 1
373.15 K, 15300 kPa	885 ± 1
373.15 K, 20100 kPa	888 ± 1
373.15 K, 25100 kPa	892 ± 1
373.15 K, 30100 kPa	896 ± 1
383.15 K, 100 kPa	860 ± 1
383.15 K, 2500 kPa	863 ± 1
383.15 K, 5100 kPa	866 ± 1
383.15 K, 10000 kPa	870 ± 1
383.15 K, 15100 kPa	875 ± 1
383.15 K, 20200 kPa	880 ± 1
383.15 K, 25100 kPa	884 ± 1
383.15 K, 30300 kPa	888 ± 1
393.15 K, 100 kPa	851 ± 1
393.15 K, 2600 kPa	853 ± 1
393.15 K, 5200 kPa	856 ± 1
393.15 K, 10000 kPa	861 ± 1
393.15 K, 15000 kPa	866 ± 1
393.15 K, 20100 kPa	870 ± 1
393.15 K, 25100 kPa	875 ± 1
393.15 K, 30400 kPa	879 ± 1
403.15 K, 100 kPa	840 ± 1
403.15 K, 2600 kPa	843 ± 1
403.15 K, 5000 kPa	846 ± 1
403.15 K, 10100 kPa	851 ± 1
403.15 K, 15100 kPa	856 ± 1
403.15 K, 20100 kPa	861 ± 1
403.15 K, 25100 kPa	866 ± 1
403.15 K, 30300 kPa	870 ± 1
413.15 K, 200 kPa	830 ± 1
413.15 K, 2500 kPa	833 ± 1
413.15 K, 5000 kPa	836 ± 1
413.15 K, 10200 kPa	842 ± 1
413.15 K, 14900 kPa	847 ± 1
413.15 K, 20000 kPa	852 ± 1
413.15 K, 25200 kPa	857 ± 1
413.15 K, 30000 kPa	861 ± 1

Conditions	refractive index
[2]	1.42844 ± 0.00031
